Experimental data: US20210252104A1, “ANTIBACTERIAL PEPTIDE MONOMERS AND COMBINATIONS FOR CO-THERAPY” (ARREVUS, INC., priority 2018, published 2021)
≈ marks a conversion by molar mass, not a printed value. Where two headings read alike, the source gives them in different places. Non-standard residues stand in square brackets, D forms with d. Residues, ends and D or L forms follow the SMILES beside them. Ac6c = NC1(C(=O)O)CCCCC1

Experiments:
E. coli 5770 = experiment: Mice challenged ip with E. coli 5770, blood bacterial counts
[1] = target: 70 kDa bacterial heat shock protein DnaK (Escherichia coli, UniProt P0A6Y8); experiment: Binding to DnaK
Source text: The bacterial target of peptide monomers described herein, such as Chex1-Arg20, is believed to be the C-terminal D-E helix of the 70 kDa bacterial heat shock protein DnaK (Otvos et al., J. Med. Chem. 48:5349 (2005); Kragol et al., Biochemistry 40:3016 (2001); Bikker et al., Chem. Biol. Drug Des. 68:148 (2006)). DnaK is a 650-residue protein comprised of 3 distinct domains: (1) N-terminal nucleotide binding domain, (2) C-terminal substrate binding domain and (3) flexible linking domain. […] Peptide monomers described herein bind to DnaK from multiple bacterial species. The MPC of Chex1-Arg20 is reported to be >100 μM, supporting the conclusion that the antibacterial efficacy is […] non-membranolytic. Because DnaK is present in all bacteria, peptide monomers described herein are effective against a wide variety of bacteria and may be effective in combination with all classes of antibiotics.

A. baumannii HUMC1 = experiment: Bacteremia synergy assay 3 (murine bacteremia model); type: in vivo
[2] = test system: Burkholderia pseudomallei 1026b; type: in vivo
[3] = reported value; cited from earlier work
[4] = Post-antibiotic effect (PAE)
Source text: Post-antibiotic Effect (PAE).

[5] = Immunogenicity, antibody production by ELISA; type: in vivo; conditions: mice; 5 mg/kg sc twice in a 3-wk interval; blood 4 weeks after second immunization
[6] = test system: Acinetobacter baumannii BAA-1805 (MACI); experiment: microbe, parasite or virus in culture; conditions: BAA1805, read-out: MACI MIC (mg/L)
[7] = test system: A. baumannii strain (BAA-1605); experiment: microbe, parasite or virus in culture; type: cell-based; conditions: Acinetobacter baumannii, BAA1605, read-out: MIC
K. pneumoniae K97/09 [8] = experiment: FIC checkerboard assay (combinations); type: cell-based; conditions: K. pneumoniae K97/09
K. pneumoniae K97/09 [9] = experiment: microbe, parasite or virus in culture; conditions: Klebsiella pneumoniae
K. pneumoniae K97/09 [10] = conditions: K. pneumoniae K97/09; no unit in table (mg/L)

Chain of 70 kDa bacterial heat shock protein DnaK (P0A6Y8 whole entry, the tested form may be a part): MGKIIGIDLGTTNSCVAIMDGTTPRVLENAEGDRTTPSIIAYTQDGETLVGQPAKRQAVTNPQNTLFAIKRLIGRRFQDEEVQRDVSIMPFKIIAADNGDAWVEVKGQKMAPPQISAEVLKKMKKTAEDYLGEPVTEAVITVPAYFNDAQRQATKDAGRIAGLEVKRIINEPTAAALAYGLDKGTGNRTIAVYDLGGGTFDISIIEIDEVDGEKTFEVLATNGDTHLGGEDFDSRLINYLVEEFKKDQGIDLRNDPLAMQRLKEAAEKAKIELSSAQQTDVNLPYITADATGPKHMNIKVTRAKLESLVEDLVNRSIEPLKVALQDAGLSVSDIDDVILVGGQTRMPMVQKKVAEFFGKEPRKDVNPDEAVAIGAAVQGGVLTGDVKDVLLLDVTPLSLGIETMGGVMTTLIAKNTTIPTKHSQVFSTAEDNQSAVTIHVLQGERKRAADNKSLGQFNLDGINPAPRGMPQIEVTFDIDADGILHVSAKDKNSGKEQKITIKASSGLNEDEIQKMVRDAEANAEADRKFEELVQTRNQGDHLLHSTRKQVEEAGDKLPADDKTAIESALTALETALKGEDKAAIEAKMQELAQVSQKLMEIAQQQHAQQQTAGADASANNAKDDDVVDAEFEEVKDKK

CC(C)C[C@H](NC(=O)[C@H](Cc1ccc(O)cc1)NC(=O)[C@@H]1CCCN1C(=O)[C@H](CCCNC(=N)N)NC(=O)[C@@H]1CCCN1C(=O)[C@H](CCCCN)NC(=O)[C@H](CC(=O)O)NC(=O)[C@@H]1CCCN1C(=O)[C@H](CCCNC(=N)N)NC(=O)C1(N)CCCCC1)C(=O)N1CCC[C@H]1C(=O)N[C@@H](CCCNC(=N)N)C(=O)N1CCC[C@H]1C(=O)N[C@@H](CCCNC(=N)N)C(=O)N1CCC[C@H]1C(=O)N1CCC[C@H]1C(=O)N[C@@H](CCCNC(=N)N)C(=O)N1CCC[C@H]1C(=O)N[C@H](C(=O)N[C@@H](CCCNC(=N)N)C(N)=O)C(C)C [Example 1, Chex-RPDKPRPYLPRPRPPRPVR-NH2] (H-[Ac6c]RPDKPRPYLPRPRPPRPVR-NH2)
MIC (E. Coli ATCC 29222): 2.6 ± 0.7 µM (≈ 6.44 µg/mL)
Bacterial counts in blood (E. coli 5770; 2.5 mg/kg ip, 4 h after challenge (before first dose)): 3.68 × 10^7 CFU/mL
Bacterial counts in blood (E. coli 5770; 2.5 mg/kg ip, 8 h after challenge): 4.2 × 10^6 CFU/mL
Bacterial counts in blood (E. coli 5770; 2.5 mg/kg ip, 12 h after challenge): <1.7 × 10^6 CFU/mL
Bacterial counts in blood (E. coli 5770; 2.5 mg/kg ip, 16 h after challenge): <1 × 10^6 CFU/mL
Bacterial counts in blood (E. coli 5770; 2.5 mg/kg ip, 24 h after challenge): <4.8 × 10^5 CFU/mL
Improvement of blood bacterial load (E. coli 5770; 2.5 mg/kg ip, by 24 h): not statistically significant
Reduction of blood bacterial load (E. coli 5770; 2.5 mg/kg ip, during the 12-h treatment period): 1.5-2 log 10 units
Reduction of blood bacterial counts after inoculation (E. coli 5770; 5 mg/kg ip): > 2 log 10 CFU/mL
Bacterial counts in blood (E. coli 5770; 5 mg/kg ip, 4 h after challenge (before first dose)): 3.68 × 10^7 CFU/mL
Bacterial counts in blood (E. coli 5770; 5 mg/kg ip, 8 h after challenge): 4.3 × 10^5 CFU/mL
Bacterial counts in blood (E. coli 5770; 5 mg/kg ip, 12 h after challenge): 1.1 × 10^6 CFU/mL
Bacterial counts in blood (E. coli 5770; 5 mg/kg ip, 16 h after challenge): <1.1 × 10^5 CFU/mL
Bacterial counts in blood (E. coli 5770; 5 mg/kg ip, 24 h after challenge): <1 × 10^3 CFU/mL
Blood sterilization (E. coli 5770; 5 mg/kg ip, at 24 h): complete sterilization of the blood
Time after the last peptide treatment by which the blood was sterilized (E. coli 5770; 10 mg/kg ip): ≤ 4 h
Bacterial counts in blood (E. coli 5770; 10 mg/kg ip, 4 h after challenge (before first dose)): 3.68 × 10^7 CFU/mL
Bacterial counts in blood (E. coli 5770; 10 mg/kg ip, 8 h after challenge): 2.4 × 10^5 CFU/mL
Bacterial counts in blood (E. coli 5770; 10 mg/kg ip, 12 h after challenge): 2.9 × 10^5 CFU/mL
Bacterial counts in blood (E. coli 5770; 10 mg/kg ip, 16 h after challenge): <1 × 10^3 CFU/mL
Bacterial counts in blood (E. coli 5770; 10 mg/kg ip, 24 h after challenge): <1 × 10^3 CFU/mL
MIC (E. coli UNT167-1): 32 mg/L (≈ 12.9 µM)
Kd [1]: 410 nM
MIC (K. Pneumoniae ATCC 13883): 0.8 ± 0.0 µM (≈ 1.98 µg/mL)
MIC (A. Baumannii ATCC 19606): >100 µM
MIC (P. aeruginosa ATCC 47085): 56.3 ± 4.5 µM (≈ 139 µg/mL)
Complete response (negative blood culture), test animals (A. baumannii HUMC1; ARV-1502 5.0 mg/kg treatment group): 100%
Negative blood culture of A. baumannii (A. baumannii HUMC1; ARV-1502 1.25-5.0 mg/kg treatment groups): dose-dependent negative blood culture
Median survival (days post-challenge) ([2]; Chex1-Arg20 5 mg/kg im monotherapy): 4 days post-challenge
Rescue of mice ([2]; Chex1-Arg20 monotherapy): failed to rescue any mouse
B. pseudomallei load in survivals (CFU/spleen) ([2]; in vivo, 5 mg/kg): No survival
Number of deaths ([2]; in vivo, 5 mg/kg): 10
MPC [3]: > 100 µM
Post-antibiotic effect (PAE) [4]: 14 h
Antibody production by ELISA [5]: Neither IgG1, IgG2a, IgG3, IgM, nor IgE are observed

C[C@@H](O)[C@H]1C(=O)N2C(C(=O)O)=C(SCCN=CN)C[C@H]12 [imipenem]
MIC [6]: 64 mg/L (≈ 214 µM)
MIC [7]: 64 µg/mL (≈ 214 µM)
ΣFIC (K. pneumoniae K97/09 [8]; antibiotic + ARV-1501): 0.5
MIC of antibiotic + ARV-1501 (K. pneumoniae K97/09 [8]; antibiotic in combination with ARV-1501, no unit in table): 4
MIC (K. pneumoniae K97/09 [9]; K97/09): > 256 mg/L
MIC (K. pneumoniae K97/09 [9]; K97/09, read-out: KPC MIC (mg/L)): > 256 mg/L
MIC of antibiotic alone (K. pneumoniae K97/09 [10]): >256
